In patent US10301288B2, “Kinase inhibitors” (Topivert Pharma Limited, priority 2013, dated 2019):
Like-named read-outs stand apart in the source and are kept apart here.

Legend:
[1] = Cryopreserved hepatocyte stability, rat; type: in vitro ADME; details: pooled cryopreserved hepatocytes, read-out: Mean intrinsic clearance
Experimental: (§1) Formulae Clint(tissue clearance) mL/min/kg=[0.693/t½ (min)]×[1/microsomal protein concentration mg/mL]×[mg microsomes/g liver]×[g liver/kg body weight] […] The incubations were performed at 37° C. with 100 μL, samples taken from the incubation, at 0, 10, 20, 45 and 90 minutes, and reactions terminated by addition of 100 μL of acetonitrile containing carbamazepine as analytical internal standard. […] Half-life values were calculated from the relationship T1/2 (min)=−0.693/λ • where λ was the slope of the Ln concentration vs time curve. • Standard compounds testosterone, midazolam and 4-methylumbelliferone are included in the assay design.
(§2) Clint(Tissue Clearance) mL/min/kg=[0.693/t½(min)]×[1/hepatocyte concentration (million cells/mL)]×[million cells/g liver]×[g liver/kg body weight] Clint(Hepatic clearance) mL/min/kg=hepatic blood flow×Clint/(hepatic blood flow+Clint) Hepatic extraction ratio(Eh)=Clint(Hepatic clearance) mL/min/kg/hepatic blood flow (mL/min/kg)

[2] = test system: primary macrophages; experiment: (e) LPS-induced cytokine release in primary macrophages; type: cell-based; details: Homo sapiens, Primary macrophage, assay (e)
Experimental: PBMCs from healthy subjects are separated from whole blood using a density gradient (Lymphoprep, Axis-Shield Healthcare). Cells are incubated for 2 hrs and non-adherent cells removed by washing. To differentiate the cells to macrophages the cells are incubated with 5 ng/ml of GM-CSF (Peprotech) for 7 days under normal tissue culture conditions. Compounds are then added to the cells at the desired concentration for a 2 hour pre-treatment before stimulation with 10 ng/ml LPS for 24 hours. […] The IC50 is determined from the dose response curve.

[3] = test system: PBMCs; experiment: (c) IL-2 and IFN gamma release in CD3/CD28 stimulated PBMC cells; type: cell-based; details: Homo sapiens, read-out: IC50 for Inhibition of Cytokine Release, IFNγ
Experimental: PBMCs from healthy subjects are separated from whole blood using a density gradient (Lymphoprep, Axis-Shield Healthcare). Cells are added to a 96 well plate pre-coated with a mixture of CD3/CD28 monoclonal antibodies (0.3 ug/ml eBioscience and 3 ug/ml BD Pharmingen respectively). Compound at the desired concentration is then added to the wells and the plate left for 3 days under normal tissue culture conditions. […] The IC50 is determined from the dose response curve.

[4] = Hepatic microsomal stability, rat; type: in vitro ADME; details: pooled liver microsomes, read-out: Mean intrinsic clearance
Experimental: (§3) • Microsomal stability assays were performed with incubations of test compounds at 0.1 μM (n=2, final DMSO concentration 0.25%), and carried out using pooled human, […], rat and Cynomolgus macaque hepatic microsomes from Xenotech (Lots 1210153, 0810143 and 1110042, respectively) at 0.25 mg protein/mL in the presence of cofactor, NADPH. The incubations were performed at 37° C. with 100 μL aliquots taken from the incubation, at 0, 2, 5, 10 and 20 minutes (and, in the case of Cynomolgus macaque hepatic microsomes, 40 minutes) and reactions terminated by addition of 100 μL of acetonitrile containing carbamazepine as analytical internal standard. […] Half-life values were calculated from the relationship T1/2 (min)=−0.693/λ • where λ was the slope of the Ln concentration vs time curve. • The in vitro intrinsic clearance, Clint (mL/min/kg), was calculated and scaled to hepatic extraction ratios using the following scaling parameters and formulae.
(§4) Formulae Clint(tissue clearance) mL/min/kg=[0.693/t½ (min)]×[1/microsomal protein concentration mg/mL]×[mg microsomes/g liver]×[g liver/kg body weight] […] Half-life values were calculated from the relationship T1/2 (min)=−0.693/λ • where λ was the slope of the Ln concentration vs time curve. • Standard compounds testosterone, midazolam and 4-methylumbelliferone are included in the assay design.

[5] = Hepatic microsomal stability, Cynomolgus macaque; type: in vitro ADME; details: pooled liver microsomes, read-out: Mean intrinsic clearance
Experimental: as §3, §4

[6] = molecular target: hERG (Homo sapiens (Human), UniProt Q12809); experiment: hERG inhibition, IonWorks patch clamp; type: cell-based
Experimental: Eight-point concentration curves were generated using serial 3-fold dilutions from the maximum final assay concentration (3 μM). Electrophysiological recordings were made from a Chinese Hamster Lung cell line stably expressing the full length hERG channel Single cell ionic currents were measured in the perforated patch clamp configuration (100 μg/mL) amphotericin) at room temperature (21-23° C.) using an IonWorks Quattro instrument. The internal solution contained (mM): 140 KCl, 1 MgCl2, 1 EGTA, 20 HEPES and was buffered to pH 7.3. The external solution contained (mM):138 NaCl, 2.7 KCl, 0.9 CaCl2, 0.5 MgCl2, 8 Na2HPO4, 1.5 KH2PO4, also buffered to pH 7.3. Cells were clamped at a holding potential of −70 mV for 30 s and then stepped to +40 mV for 1 s. This was followed by a hyperpolarising step of 1 s to −30 mV to evoke the hERG tail current. This sequence was repeated 5 times at a frequency of 0.25 Hz. Currents were measured from the tail step at the 5th pulse, and referenced to the holding current. Compounds were then incubated for 6-7 minutes prior to a second measurement of the hERG signal using an identical pulse train. Eight-point concentration curves were generated using serial 3-fold dilutions from the maximum final assay concentration (3 μM).

[7] = Pharmacokinetics and colon distribution in mice; type: in vivo, male C57BL/6 mice; details: male, 5 mg/kg p.o.; for concentration at 1 h / concentration at 2 h / concentration at 4 h / concentration at 6 h / concentration at 8 h / concentration at 12 h / concentration at 24 h: po, mouse
Experimental: Blood samples (approximately 60 μL) were collected from retro orbital plexus such that the samples were obtained at 1, 2, 4, 6, 8, 12 and 24 hr. The blood samples were collected from a set of three mice at each time point in labelled micro centrifuge tube containing K2EDTA as anticoagulant. Plasma samples were separated by centrifugation at 4000 rpm for 10 min of whole blood and stored below −70° C. until bioanalysis. After collection of blood sample, animals were humanely euthanized by carbon dioxide asphyxiation to collect total colon tissues. The colons were flushed with cold phosphate buffer saline (pH 7.4) to remove contents. The total colon tissues were homogenized with cold phosphate buffer saline (pH 7.4) of twice the weight of colon tissue and stored below −70° C. Total volume was three times the total colon tissue weights. All samples were processed for analysis by protein precipitation using acetonitrile and analyzed with developed LC-MS/MS method (LLOQ: 2.02 ng/mL in plasma and 1.01 ng/mL in colon tissue). Pharmacokinetic parameters were calculated using the non-compartmental analysis tool of Phoenix WinNonlin® software (version 6.3).

[8] = Cryopreserved hepatocyte stability, human; type: in vitro ADME; details: pooled cryopreserved hepatocytes, read-out: Mean intrinsic clearance
Experimental: as §1, §2

[9] = C57BL/6, colon, read-out: Mean concentration, Colon
[10] = C57BL/6, plasma, read-out: Mean concentration, Plasma
[11] = C57BL/6, po, Mouse, Total colon

Sequence of hERG (Q12809 whole entry): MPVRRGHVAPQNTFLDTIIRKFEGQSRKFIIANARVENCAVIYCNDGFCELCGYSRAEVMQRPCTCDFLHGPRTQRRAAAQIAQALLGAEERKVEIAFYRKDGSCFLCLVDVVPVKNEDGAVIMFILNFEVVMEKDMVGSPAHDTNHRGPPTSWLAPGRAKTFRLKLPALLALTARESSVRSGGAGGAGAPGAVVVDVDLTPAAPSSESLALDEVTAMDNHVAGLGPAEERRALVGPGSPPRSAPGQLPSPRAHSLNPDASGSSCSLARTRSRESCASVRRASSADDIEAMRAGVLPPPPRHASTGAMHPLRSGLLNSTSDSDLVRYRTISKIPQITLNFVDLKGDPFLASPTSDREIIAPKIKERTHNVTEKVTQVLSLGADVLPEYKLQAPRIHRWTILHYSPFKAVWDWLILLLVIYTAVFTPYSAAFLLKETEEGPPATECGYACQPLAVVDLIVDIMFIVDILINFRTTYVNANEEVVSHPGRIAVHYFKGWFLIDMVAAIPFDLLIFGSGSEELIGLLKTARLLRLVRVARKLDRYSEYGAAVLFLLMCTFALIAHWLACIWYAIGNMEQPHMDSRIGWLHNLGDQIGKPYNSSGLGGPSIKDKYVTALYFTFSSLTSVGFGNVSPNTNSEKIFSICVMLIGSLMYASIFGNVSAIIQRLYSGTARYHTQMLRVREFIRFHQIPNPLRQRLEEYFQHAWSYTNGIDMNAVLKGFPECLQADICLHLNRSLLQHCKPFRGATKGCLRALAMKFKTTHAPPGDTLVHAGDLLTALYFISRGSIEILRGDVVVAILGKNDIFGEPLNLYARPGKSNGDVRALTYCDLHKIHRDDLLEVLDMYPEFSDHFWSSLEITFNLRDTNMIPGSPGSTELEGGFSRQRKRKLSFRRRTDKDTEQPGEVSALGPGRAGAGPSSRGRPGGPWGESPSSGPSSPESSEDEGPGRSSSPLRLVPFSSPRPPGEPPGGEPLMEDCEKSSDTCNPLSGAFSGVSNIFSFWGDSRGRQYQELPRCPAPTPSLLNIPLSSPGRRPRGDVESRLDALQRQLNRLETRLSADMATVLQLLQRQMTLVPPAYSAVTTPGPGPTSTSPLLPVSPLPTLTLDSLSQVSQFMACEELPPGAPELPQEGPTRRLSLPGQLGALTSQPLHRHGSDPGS

C#Cc1cc(Nc2nccc(Oc3ccc(NC(=O)Nc4cc(C(C)(C)C)nn4-c4ccc(C)cc4)c4ccccc34)n2)cc(C(=O)NCCOCCOCCOC)c1 [Example 2, 3-((4-((4-(3-(3-(tert-Butyl)-1-(p-tolyl)-1H-pyrazol-5-yl)ureido)naphthalen-1-yl)oxy)pyrimidin-2-yl)amino)-5-ethynyl-N-(2-(2-(2-methoxyethoxy)ethoxy)ethyl)-benzamide]
hepatocyte CLint at 0.1 μM [1]: 49 µL/min/1e6 cells
IC50 ([2]; read-out: IC50 for inhibition of release of IL-6): 2.8 nM
IC50 ([2]; read-out: IC50 for inhibition of release of IL-8): 2.1 nM
IC50 [3]: 2.5 nM
microsomal CLint at 0.1 μM [4]: 199 µL/min/mg
microsomal CLint at 0.1 μM [5]: 445 µL/min/mg
IC50 [6]: > 3000 nM
inhibition at 3 µM ([6]; human, pH 7.3, 3 μM, read-out: inhibition of the hERG channel): 0%
concentration at 1 h [7, 9]: 884 ng/g
concentration at 2 h [7, 9]: 2810 ng/g
concentration at 4 h [7, 9]: 4240 ng/g
concentration at 6 h [7, 9]: 1400 ng/g
concentration at 8 h [7, 9]: 13700 ng/g
concentration at 12 h [7, 9]: 7490 ng/g
concentration at 24 h [7, 9]: 31.6 ng/g
concentration at 1 h [7, 10]: 11.7 ng/mL
concentration at 2 h [7, 10]: 8.5 ng/mL
concentration at 4 h [7, 10]: 5.1 ng/mL
concentration at 6 h [7, 10]: 4.55 ng/mL
concentration at 8 h [7, 10]: 5.1 ng/mL
concentration at 12 h [7, 10]: 0 ng/mL
concentration at 24 h [7, 10]: 0 ng/mL
AUC(0-t) ([7]; C57BL/6, po, Mouse, Plasma): 0.049 µg·h/mL
Cmax ([7]; C57BL/6, po, Mouse, Plasma): 12 ng/mL
Tmax ([7]; C57BL/6, po, Mouse, Plasma): 1 h
AUC(0-inf) [7, 11]: 118 µg·h/mL
AUC(0-t) [7, 11]: 117 µg·h/mL
Cmax [7, 11]: 13700 ng/mL
Tmax [7, 11]: 8 h
hepatocyte CLint at 0.1 μM [8]: 37 µL/min/1e6 cells
